Laboratory results from PubChem BioAssay (NCI).
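The compound was tested at five concentrations on cells cultured in 96-well plates, with a 48-hour exposure period. GI50: concentration for 50% inhibition of growth. TGI marks complete inhibition of growth.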

Columns and labels:
Test in all cases: growth of human tumour cells (NCI), 48 h
786-0 renal = tested on: 786-0 renal
A498 renal = tested on: A498 renal
A549 NSCLC = tested on: A549 NSCLC
ACHN renal = tested on: ACHN renal
BT-549 breast = tested on: BT-549 breast
CAKI-1 renal = tested on: CAKI-1 renal
CCRF-CEM leukemia = tested on: CCRF-CEM leukemia
COLO 205 colon = tested on: COLO 205 colon
DU-145 prostate = tested on: DU-145 prostate
EKVX NSCLC = tested on: EKVX NSCLC
HCC-2998 colon = tested on: HCC-2998 colon
HCT-116 colon = tested on: HCT-116 colon
HCT-15 colon = tested on: HCT-15 colon
HL-60(TB) leukemia = tested on: HL-60(TB) leukemia
HOP-62 NSCLC = tested on: HOP-62 NSCLC
HOP-92 NSCLC = tested on: HOP-92 NSCLC
HS 578T breast = tested on: HS 578T breast
HT29 colon = tested on: HT29 colon
IGROV1 ovarian = tested on: IGROV1 ovarian
K-562 leukemia = tested on: K-562 leukemia
KM12 colon = tested on: KM12 colon
LOX IMVI melanoma = tested on: LOX IMVI melanoma
M14 melanoma = tested on: M14 melanoma
MALME-3M melanoma = tested on: MALME-3M melanoma
MCF7 breast = tested on: MCF7 breast
MDA-MB-231 breast = tested on: MDA-MB-231 breast
MDA-MB-435 = tested on: MDA-MB-435
MDA-MB-468 breast = tested on: MDA-MB-468 breast
MOLT-4 leukemia = tested on: MOLT-4 leukemia
NCI-H226 lung = tested on: NCI-H226 lung
NCI-H23 lung = tested on: NCI-H23 lung
NCI-H460 lung = tested on: NCI-H460 lung
NCI-H522 lung = tested on: NCI-H522 lung
NCI/ADR-RES ovarian = tested on: NCI/ADR-RES ovarian
OVCAR-3 ovarian = tested on: OVCAR-3 ovarian
OVCAR-4 ovarian = tested on: OVCAR-4 ovarian
OVCAR-5 ovarian = tested on: OVCAR-5 ovarian
OVCAR-8 ovarian = tested on: OVCAR-8 ovarian
PC-3 prostate = tested on: PC-3 prostate
RPMI-8226 leukemia = tested on: RPMI-8226 leukemia
RXF 393 renal = tested on: RXF 393 renal
SF-268 CNS = tested on: SF-268 CNS
SF-295 CNS = tested on: SF-295 CNS
SF-539 CNS = tested on: SF-539 CNS
SK-MEL-2 melanoma = tested on: SK-MEL-2 melanoma
SK-MEL-28 melanoma = tested on: SK-MEL-28 melanoma
SK-MEL-5 melanoma = tested on: SK-MEL-5 melanoma
SK-OV-3 ovarian = tested on: SK-OV-3 ovarian
SN12C renal = tested on: SN12C renal
SNB-19 CNS = tested on: SNB-19 CNS
SNB-75 CNS = tested on: SNB-75 CNS
SR leukemia = tested on: SR leukemia
SW-620 colon = tested on: SW-620 colon
T-47D breast = tested on: T-47D breast
TK-10 renal = tested on: TK-10 renal
U251 CNS = tested on: U251 CNS
UACC-257 melanoma = tested on: UACC-257 melanoma
UACC-62 melanoma = tested on: UACC-62 melanoma
UO-31 renal = tested on: UO-31 renal

CN1CCN(Cc2ccc(NC(=O)c3cncc(C#Cc4cnc5ccc(N[C@H]6CCOC6)nn45)c3)cc2C(F)(F)F)CC1
GI50 (786-0 renal): 268 nM | TGI (786-0 renal): 959 nM | GI50 (A498 renal): 278 nM | TGI (A498 renal): 490 nM | GI50 (A549 NSCLC): 175 nM | TGI (A549 NSCLC): 643 nM | GI50 (ACHN renal): 278 nM | TGI (ACHN renal): 980 nM | GI50 (BT-549 breast): 291 nM | TGI (BT-549 breast): 915 nM | GI50 (CAKI-1 renal): 148 nM | TGI (CAKI-1 renal): 511 nM | GI50 (CCRF-CEM leukemia): 28.3 nM | TGI (CCRF-CEM leukemia): 687 nM | GI50 (COLO 205 colon): 88 nM | TGI (COLO 205 colon): 197 nM | GI50 (DU-145 prostate): 170 nM | TGI (DU-145 prostate): 716 nM | GI50 (EKVX NSCLC): 128 nM | TGI (EKVX NSCLC): 696 nM | GI50 (HCC-2998 colon): 181 nM | TGI (HCC-2998 colon): 866 nM | GI50 (HCT-116 colon): 37 nM | TGI (HCT-116 colon): 290 nM | GI50 (HCT-15 colon): 321 nM | TGI (HCT-15 colon): 1290 nM | GI50 (HL-60(TB) leukemia): 43.7 nM | TGI (HL-60(TB) leukemia): 704 nM | GI50 (HOP-62 NSCLC): 172 nM | TGI (HOP-62 NSCLC): 677 nM | GI50 (HOP-92 NSCLC): 13.7 nM | TGI (HOP-92 NSCLC): 82.2 nM | GI50 (HS 578T breast): 62.1 nM | TGI (HS 578T breast): 393 nM | GI50 (HT29 colon): 90.3 nM | TGI (HT29 colon): 512 nM | GI50 (IGROV1 ovarian): 136 nM | TGI (IGROV1 ovarian): 394 nM | GI50 (K-562 leukemia): 6.9 nM | TGI (K-562 leukemia): 930 nM | GI50 (KM12 colon): 6.9 nM | TGI (KM12 colon): 526 nM | GI50 (LOX IMVI melanoma): 56.6 nM | TGI (LOX IMVI melanoma): 153 nM | GI50 (M14 melanoma): 103 nM | TGI (M14 melanoma): 315 nM | GI50 (MALME-3M melanoma): 98.2 nM | TGI (MALME-3M melanoma): 323 nM | GI50 (MCF7 breast): 46.1 nM | TGI (MCF7 breast): 274 nM | GI50 (MDA-MB-231 breast): 41.4 nM | TGI (MDA-MB-231 breast): 231 nM | GI50 (MDA-MB-435): 95.8 nM | TGI (MDA-MB-435): 813 nM | GI50 (MDA-MB-468 breast): 90.3 nM | TGI (MDA-MB-468 breast): 211 nM | GI50 (MOLT-4 leukemia): 46.8 nM | TGI (MOLT-4 leukemia): 866 nM | GI50 (NCI-H226 lung): 14.7 nM | TGI (NCI-H226 lung): 218 nM | GI50 (NCI-H23 lung): 81.4 nM | TGI (NCI-H23 lung): 249 nM | GI50 (NCI-H460 lung): 144 nM | TGI (NCI-H460 lung): 828 nM | GI50 (NCI-H522 lung): 103 nM | TGI (NCI-H522 lung): 249 nM | GI50 (NCI/ADR-RES ovarian): 5820 nM | TGI (NCI/ADR-RES ovarian): 25300 nM | GI50 (OVCAR-3 ovarian): 183 nM | TGI (OVCAR-3 ovarian): 1030 nM | GI50 (OVCAR-4 ovarian): 260 nM | TGI (OVCAR-4 ovarian): 2130 nM | GI50 (OVCAR-5 ovarian): 142 nM | TGI (OVCAR-5 ovarian): 536 nM | GI50 (OVCAR-8 ovarian): 252 nM | TGI (OVCAR-8 ovarian): 1130 nM | GI50 (PC-3 prostate): 185 nM | TGI (PC-3 prostate): 3690 nM | GI50 (RPMI-8226 leukemia): 237 nM | TGI (RPMI-8226 leukemia): 1230 nM | GI50 (RXF 393 renal): 108 nM | TGI (RXF 393 renal): 274 nM | GI50 (SF-268 CNS): 180 nM | TGI (SF-268 CNS): 917 nM | GI50 (SF-295 CNS): 291 nM | TGI (SF-295 CNS): 1260 nM | GI50 (SF-539 CNS): 21 nM | TGI (SF-539 CNS): 102 nM | GI50 (SK-MEL-2 melanoma): 152 nM | TGI (SK-MEL-2 melanoma): 350 nM | GI50 (SK-MEL-28 melanoma): 235 nM | TGI (SK-MEL-28 melanoma): 996 nM | GI50 (SK-MEL-5 melanoma): 487 nM | TGI (SK-MEL-5 melanoma): 1390 nM | GI50 (SK-OV-3 ovarian): 446 nM | TGI (SK-OV-3 ovarian): 2010 nM | GI50 (SN12C renal): 33.7 nM | TGI (SN12C renal): 398 nM | GI50 (SNB-19 CNS): 249 nM | TGI (SNB-19 CNS): 1120 nM | GI50 (SNB-75 CNS): 144 nM | TGI (SNB-75 CNS): 330 nM | GI50 (SR leukemia): 95 nM | TGI (SR leukemia): 9330 nM | GI50 (SW-620 colon): 72.3 nM | TGI (SW-620 colon): 367 nM | GI50 (T-47D breast): 704 nM | TGI (T-47D breast): 5150 nM | GI50 (TK-10 renal): 254 nM | TGI (TK-10 renal): 828 nM | GI50 (U251 CNS): 219 nM | TGI (U251 CNS): 1020 nM | GI50 (UACC-257 melanoma): 483 nM | TGI (UACC-257 melanoma): 1990 nM | GI50 (UACC-62 melanoma): 151 nM | TGI (UACC-62 melanoma): 801 nM | GI50 (UO-31 renal): 962 nM | TGI (UO-31 renal): 2290 nM
